Assay results reported in patent publication US20230077723A1, “N-SUBSTITUTED-3,4-(FUSED 5-RING)-5-PHENYL-PYRROLIDINE-2-ONE COMPOUNDS AS INHIBITORS OF ISOQC AND/OR QC ENZYME” (Scenic Immunology B.V., priority 2019, published 2023).

What was measured:
[1] = biological target: T1, Recombinant QC enzyme (residues 33-361 of uniprot ID Q16769) (Homo sapiens, UniProt Q16769); assay: Assay 5 - QC potency, fluorescent enzymatic assay; type: biochemical; conditions: fluorescent read-out; read-out: QC Pot. Assay No. 5
T1 construct: bacterial expression of residues 33-361 of uniprot ID Q16769; His tag (cleaved yes); made in house; host or cells: bacterial expression (pET32a)
T1 sequence (Q16769 33-361): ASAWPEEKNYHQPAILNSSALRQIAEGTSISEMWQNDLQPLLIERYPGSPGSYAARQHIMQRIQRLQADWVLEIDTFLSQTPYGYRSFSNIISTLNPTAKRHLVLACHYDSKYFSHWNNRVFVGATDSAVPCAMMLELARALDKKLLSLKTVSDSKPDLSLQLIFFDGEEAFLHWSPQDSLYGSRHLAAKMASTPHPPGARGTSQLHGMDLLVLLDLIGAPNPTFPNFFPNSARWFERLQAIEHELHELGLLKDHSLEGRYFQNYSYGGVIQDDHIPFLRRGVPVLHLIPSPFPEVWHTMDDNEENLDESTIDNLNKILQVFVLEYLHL
Text: Recombinant QC enzyme was produced by bacterial expression of residues 33-361 of uniprot ID Q16769, fused to a His tag, codon optimized and cloned into the pET32a plasmid backbone. After scale-up, expression and lysis, protein was purified by Ni-NTA IMAC, dialysed in the presence of Factor Xa, further purified by Ni-NTA reverse IMAC and finally filtrated for size on a Superdex 200 16/60 column. Final protein was concentrated using a spin concentrator at 10 kDa molecular weight cutoff and formulated in 150 mM NaCl, 50 mM Tris-HCl, 50% Glycerol, pH 8.0.
(§1) Pyroglutamylation was measured by conversion of glutamine-4-amino-7-methylcoumarine (H-Gln-AMC, Bachem) to pyroglutamyl-AMC, which is subsequently a specific substrate for pyroglutamylaminopeptidase (pGAPase, Qiagen), releasing free AMC which can be fluorescently detected. For a typical inhibition assay, 7.5 μL aliquots of threefold dilutions of test compound in 50 mM Tris pH8 buffer were plated in 384-well plates. 15 μL 20 μM h-Gln-AMC (diluted from a 40 mM stock dissolved in 25 mM HEPES using 50 mM Tris-HCl pH 8.0) was added to each well. Finally, 7.5 μL, 3 ng/μL recombinant QC enzyme was added and the reaction mixture was incubated for 1 hour at 37° C. A 5 minute incubation at 98° C. was then performed to denature the QC enzyme and stop the reaction.
(§2) To detect the amount of pyroglutamyl-AMC formed, a 0.125 U/mL pGAPase enzyme diluted in 50 mM Tris-HCl pH 8.0 containing 10 mM dithiothreitol (DTT) solution was prepared. 25 μL of the pyroglutamylation reaction mixture was transferred into an empty plate and to that, 25 μL of the pGAPase enzyme solution was added. Plates were then incubated for 25 minutes at room temperature before fluorescence readings were taken on an Envision2 plate reader with excitation set at 380 nm and emission at 450 nm.
(§3) DMSO concentrations during the assay never exceeded 1% and activities were compared to controls containing only the same amount of DMSO and no test compound. Controls were taken along containing pyroglutamylated-AMC (Bachem, dissolved at 10 mM in DMSO) instead of H-Gln-AMC to control for pGAPase inhibition.
IC50 values are calculated using non-linear regression analysis with GraphPad Prism software.

[2] = biological target: T2, human isoQC (S53-L382) (Homo sapiens, UniProt Q9NXS2); assay: Assay 3 - isoQC potency, fluorescent enzymatic assay; type: biochemical; conditions: fluorescent read-out; read-out: isoQc Pot. Assay No. 3
T2 construct: enzymatically active region of human isoQC (S53-L382; see, e.g., Huang et al., 2011); GST-Enterokinase site (N, cleaved yes); made in house; host or cells: E. coli
T2 sequence (Q9NXS2 53-382): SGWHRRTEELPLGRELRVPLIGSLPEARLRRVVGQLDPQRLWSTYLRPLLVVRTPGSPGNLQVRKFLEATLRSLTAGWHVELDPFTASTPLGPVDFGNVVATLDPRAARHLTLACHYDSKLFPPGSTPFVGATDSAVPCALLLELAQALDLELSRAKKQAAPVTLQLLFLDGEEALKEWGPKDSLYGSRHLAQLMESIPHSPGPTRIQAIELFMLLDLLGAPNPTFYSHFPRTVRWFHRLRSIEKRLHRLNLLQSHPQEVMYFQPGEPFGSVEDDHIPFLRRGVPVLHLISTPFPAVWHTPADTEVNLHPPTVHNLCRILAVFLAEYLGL
Procedure: For this assay specifically, isoQC production was performed slightly different than described in the general methods: The Golgi luminal, enzymatically active region of human isoQC (S53-L382; see, e.g., Huang et al., 2011) was obtained by expression in E. coli of an N-terminally GST Enterokinase and C-terminally 6×His tagged construct in the pET41(+) vector and subsequent purification using Ni-NTA IMAC. Enterokinase digestion ensued, followed by another Ni-NTA IMAC purification, Superdex75 based size exclusion and finally a spin concentration using a 10 kDa molecular weight cutoff. The final protein is formulated in 50 mM Tris-HCl, 150 mM NaCl, 50% Glycerol, pH 7.8.
as §1, with “isoQC” for “QC”
as §2
as §3, with “inhibition. IC50 values are calculated using non-linear regression analysis with GraphPad Prism software.” for “inhibition.”

[3] = test system: pyroglutamylated CD47 (pE-CD47) in KBM7 cells; assay: Assay 6 - cell-based potency assay (pE-CD47 CC2C6 staining vs total CD47); parameters: species or system human; conditions: Homo sapiens, KBM-7, 72 h, CC2C6 signal, read-out: Cell Pot. Assay No. 6
Summary of the method: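 KBM7 cells received a 10-point 2-fold compound series for 72 h at 37 °C, then were stained with anti-CD47 clones 2D3 (total) and CC2C6 (pyroglutamylated) and analysed by flow cytometry on DAPI-negative cells. MFI was scaled between wild-type and CD47- or QPCTL-knockout cells; IC50 came from 3-parameter logistic fit of CC2C6 signal, top fixed at 1.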

| IC50 [1] | IC50 [2] | IC50 [3] | Structure (SMILES) |
| --- | --- | --- | --- |
| 25 to 100 nM | 25 to 100 nM | < 1000 nM | Cc1[nH]nc2c1C(c1ccc(N3CCC(F)(F)C3)c(F)c1F)N(c1ccc3[nH]cnc3c1)C2=O (centres unmarked) [FRPPO-161] |
| 100 to 5000 nM | 25 to 100 nM | < 1000 nM | Cc1nn(C)c2c1C(c1ccc(-c3cnn(C(F)(F)F)c3)cc1F)N(c1ccc3[nH]cnc3c1)C2=O (centres unmarked) [FRPPO-165] |
| 100 to 5000 nM | 100 to 5000 nM | < 1000 nM | Cc1nn(C)c2c1C(c1ccc(-c3cnc(C(F)(F)F)s3)cc1F)N(c1ccc3[nH]cnc3c1)C2=O (centres unmarked) [FRPPO-164] |
| 100 to 5000 nM | 100 to 5000 nM | 1000 to 5000 nM | Cc1nn(C)c2c1C(c1ccc(-n3cc(C(F)(F)F)cn3)cc1F)N(c1ccc3[nH]cnc3c1)C2=O (centres unmarked) [FRPPO-166] |

More lines, now with the values behind:

| Structure (SMILES) | IC50 [1] | IC50 [2] | IC50 [3] |
| --- | --- | --- | --- |
| Cc1noc2c1C(c1ccc(-c3cnn(C(F)(F)F)c3)cc1F)N(c1ccc3[nH]cnc3c1)C2=O (centres unmarked) [FRPPO-176] | 100 to 5000 nM | 25 to 100 nM |  |
| COc1n[nH]c2c1C(c1ccc(N3CCC(F)(F)C3)cc1F)N(c1ccc3[nH]cnc3c1)C2=O (centres unmarked) [FRPPO-173] | 25 to 100 nM | 25 to 100 nM |  |
| O=C1c2[nH]ncc2C(c2ccc(N3CCC(F)(F)C3)cc2F)N1c1ccc2[nH]cnc2c1 (centres unmarked) [FRPPO-171] | 100 to 5000 nM | 100 to 5000 nM |  |
| Cc1onc2c1C(c1ccc(-c3cnn(C(F)(F)F)c3)cc1F)N(c1ccc3[nH]cnc3c1)C2=O (centres unmarked) [FRPPO-177] | 25 to 100 nM | < 25 nM |  |
